Results: patent US20230081426A1, “COMPOUNDS AND METHODS FOR KRAS MODULATION AND INDICATIONS THEREFOR” (Plexxikon Inc., priority 2020, published 2023)

Columns and labels:
[1] = target: T1, G12D-mutant human KRAS (amino acid residues 1-188) (Homo sapiens, UniProt P01116, G12D); assay: KRAS Binding Disruption Assay (AlphaScreen; biotinylated KRpep-2d analogue or RAF1-RBD), G12D; conditions: KRAS G12D; geometric mean; read-out: KRAS GMean IC50 (uM) MUTATION: G12D
T1 construct: G12D or G12C-mutant human KRAS (amino acid residues 1-188) with FLAG tag; made in house; host or cells: E. coli
Method in brief: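 Compounds are titrated against 5-20 nM mutant KRAS and 5-20 nM of either a biotinylated KRpep-2d analogue or RAF1-RBD, incubated 1 h at 25° C. Disruption is detected as reduced Alpha signal after 1 h with donor and acceptor beads at 10 μg/mL.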

[2] = target: T2, G12V-mutant human KRAS (amino acid residues 1-188) (Homo sapiens, UniProt P01116, G12V); assay: KRAS Binding Competition Assay (AlphaScreen; biotinylated KRpep-2d analogue), G12V; conditions: geometric mean, read-out: KRAS GMean IC50 (uM) MUTATION: G12V
T2 construct: G12V-mutant human KRAS (amino acid residues 1-188) with FLAG tag was purified from E. coli; made in house; host or cells: E. coli
Experimental: Compound binding disrupts the interaction of KRpep-2d with KRAS, leading to a decrease in Alpha signal.
All assay components were prepared in 20 mM HEPES (pH 7.5), 100 mM NaCl, 5 mM MgCl2, 0.01% Tween-20, and 0.01% BSA. Biotinylated analogues of KRpep-2d were custom synthesized. The binding competition assays were performed using 10 nM of mutant KRAS and 10 nM of biotinylated KRpep-2d analogue. 19 μL of KRAS protein and 4 μL of biotinylated KRpep-2d were added to the wells of a 384-well plate containing 1 μL of various concentrations of test compound or DMSO vehicle. 16 wells containing KRAS, biotinylated KRpep-2d, and 5% DMSO served as high controls. 16 wells containing KRAS only and 5% DMSO served as low controls. Binding reactions were incubated for 1 hour at 25° C., then Anti-Flag Acceptor and Streptavidin Donor Alpha beads were added at a final concentration of 10 μg/mL for an additional hour at room temperature. Alpha signal was read out on a Perkin Elmer Envision HTS instrument. The percentage inhibition at individual compound concentrations relative to high and low controls was calculated. The data were analyzed by using nonlinear regression to generate IC50 values.

SMILES | IC50 [1] | IC50 [2]
CN1CCC[C@H]1COc1nc(N2[C@@H]3CC[C@H]2CNC3)c2ccc(-c3c(N)cccc3Cl)cc2n1 [P-0300, 2-(4-((1R,5S)-3,8-diazabicyclo[3.2.1]octan-8-yl)-2-(((S)-1-methylpyrrolidin-2-yl)methoxy)quinazolin-7-yl)-3-chloroaniline] | 10 to 100 µM | 10 to 100 µM
Oc1cc(-c2ccc3c(N4C[C@H]5CC[C@@H](C4)N5)nc(N4CC5CCC(C4)N5)nc3c2F)c2ccccc2c1 [P-0381, 4-(4-((1R,5S)-3,8-diazabicyclo[3.2.1]octan-3-yl)-2-(3,8-diazabicyclo[3.2.1]octan-3-yl)-8-fluoroquinazolin-7-yl)naphthalen-2-ol] | 0.0001 to 10 µM | 100 to 1000 µM
Oc1cc(-c2c(Cl)cc3c(N4C[C@H]5CC[C@@H](C4)N5)nc(OCC45CCCN4CC(F)(F)C5)nc3c2F)c2ccccc2c1 (stereo partly drawn) [P-0047, 4-(4-((1R,5S)-3,8-diazabicyclo[3.2.1]octan-3-yl)-6-chloro-2-((2,2-difluorotetrahydro-1H-pyrrolizin-7a(5H)-yl)methoxy)-8-fluoroquinazolin-7-yl)naphthalen-2-ol] | 0.0001 to 10 µM | 0.0001 to 10 µM
Oc1cc(-c2ccc3c(N4[C@@H]5CC[C@H]4CNC5)nc(CCc4ccccn4)nc3c2)c2ccccc2c1 [P-0232, 4-(4-((1R,5S)-3,8-diazabicyclo[3.2.1]octan-8-yl)-2-(2-(pyridin-2-yl)ethyl)quinazolin-7-yl)naphthalen-2-ol] | 0.0001 to 10 µM | 10 to 100 µM
CN1CCC[C@H]1COc1nc(N2[C@@H]3CC[C@H]2CNC3)c2ccc(-c3cc([N+](=O)[O-])cc4ccccc34)cc2n1 [P-0263, 4-((1R,5S)-3,8-diazabicyclo[3.2.1]octan-8-yl)-2-(((S)-1-methylpyrrolidin-2-yl)methoxy)-7-(3-nitronaphthalen-1-yl)quinazoline] | 10 to 100 µM | 10 to 100 µM
CN1CCC[C@H]1COc1nc(N2[C@@H]3CC[C@H]2CN(C(=O)CCC2CCCCN2)C3)c2ccc(-c3cc(O)cc4ccccc34)cc2n1 (stereo partly drawn) [P-0191, 1-((1R,5S)-8-(7-(3-hydroxynaphthalen-1-yl)-2-(((S)-1-methylpyrrolidin-2-yl)methoxy)quinazolin-4-yl)-3,8-diazabicyclo[3.2.1]octan-3-yl)-3-(piperidin-2-yl)propan-1-one] | 10 to 100 µM | 10 to 100 µM
O=C(N[C@@H]1CCCNC1)N1[C@@H]2CC[C@H]1CN(c1nc(OCC34CCCN3CCC4)nc3cc(-c4cc(O)cc5ccccc45)ccc13)C2 [P-0143, (1R,5S)-3-(7-(3-hydroxynaphthalen-1-yl)-2-((tetrahydro-1H-pyrrolizin-7a(5H)-yl)methoxy)quinazolin-4-yl)-N-((R)-piperidin-3-yl)-3,8-diazabicyclo[3.2.1]octane-8-carboxamide] | 0.0001 to 10 µM | 0.0001 to 10 µM
CN1CCN(CCNC(=O)N2[C@@H]3CC[C@H]2CN(c2nc(OCC4CCCN4C)nc4c(F)c(-c5cc(O)cc6ccccc56)ccc24)C3)CC1 (stereo partly drawn) [P-0416, (1R,5S)-3-(8-fluoro-7-(3-hydroxynaphthalen-1-yl)-2-((1-methylpyrrolidin-2-yl)methoxy)quinazolin-4-yl)-N-(2-(4-methylpiperazin-1-yl)ethyl)-3,8-diazabicyclo[3.2.1]octane-8-carboxamide] | 10 to 100 µM | 10 to 100 µM
CN1CCC[C@H]1COc1nc(N2C[C@H]3CC[C@@H](C2)N3S(=O)(=O)N[C@@H]2CCNC2)c2ccc(-c3cc(O)cc4ccccc34)c(F)c2n1 [P-0405, (1R,5S)-3-(8-fluoro-7-(3-hydroxynaphthalen-1-yl)-2-(((S)-1-methylpyrrolidin-2-yl)methoxy)quinazolin-4-yl)-N-((R)-pyrrolidin-3-yl)-3,8-diazabicyclo[3.2.1]octane-8-sulfonamide] | 0.0001 to 10 µM | 10 to 100 µM
CN1CCC[C@H]1COc1nc(N2CC3CCC(C2)N3)c2ccc(N3CC(O)Cc4ccccc43)cc2n1 (mixture of isomers) [P-0256, 1-(4-((1R,5S)-3,8-diazabicyclo[3.2.1]octan-3-yl)-2-(((RS)-1-methylpyrrolidin-2-yl)methoxy)quinazolin-7-yl)-1,2,3,4-tetrahydroquinolin-3-ol] | 10 to 100 µM | 10 to 100 µM
C[C@@H](O)C(=O)N1[C@@H]2CC[C@H]1CN(c1nc(OC[C@@H]3CCCN3C)nc3c(F)c(-c4cc(O)cc5ccccc45)ccc13)C2 [P-0395, (R)-1-((1R,5S)-3-(8-fluoro-7-(3-hydroxynaphthalen-1-yl)-2-(((S)-1-methylpyrrolidin-2-yl)methoxy)quinazolin-4-yl)-3,8-diazabicyclo[3.2.1]octan-8-yl)-2-hydroxypropan-1-one] | 0.0001 to 10 µM | 0.0001 to 10 µM
CN1CCC[C@H]1COc1nc(N2[C@@H]3CC[C@H]2CNC3)c2ccc(-c3c(O)cccc3Cl)cc2n1 [P-0290, 2-(4-((1R,5S)-3,8-diazabicyclo[3.2.1]octan-8-yl)-2-(((S)-1-methylpyrrolidin-2-yl)methoxy)quinazolin-7-yl)-3-chlorophenol] | 10 to 100 µM | 10 to 100 µM
CN1CCC[C@H]1COc1nc(N2C[C@H]3CC[C@@H](C2)N3)c2cc(F)c(N3CC(O)Cc4ccccc43)c(F)c2n1 (stereo partly drawn) [P-0344, 1-(4-((1R,5S)-3,8-diazabicyclo[3.2.1]octan-3-yl)-6,8-difluoro-2-(((S)-1-methylpyrrolidin-2-yl)methoxy)quinazolin-7-yl)-1,2,3,4-tetrahydroquinolin-3-ol] | 0.0001 to 10 µM | 100 to 1000 µM
CN1CCC[C@H]1COc1nc(N2C[C@H]3CC[C@@H](C2)N3C(=O)C2CCC(=O)N2)c2ccc(-c3cc(O)cc4ccccc34)c(F)c2n1 (stereo partly drawn) [P-0396, 5-((1R,5S)-3-(8-fluoro-7-(3-hydroxynaphthalen-1-yl)-2-(((S)-1-methylpyrrolidin-2-yl)methoxy)quinazolin-4-yl)-3,8-diazabicyclo[3.2.1]octane-8-carbonyl)pyrrolidin-2-one] | 0.0001 to 10 µM | 0.0001 to 10 µM
O=C(O)CNC(=O)N1[C@@H]2CC[C@H]1CN(c1nc(OCC34CCCN3CCC4)nc3cc(-c4cc(O)cc5ccccc45)ccc13)C2 [P-0094, ((1R,5S)-3-(7-(3-hydroxynaphthalen-1-yl)-2-((tetrahydro-1H-pyrrolizin-7a(5H)-yl)methoxy)quinazolin-4-yl)-3,8-diazabicyclo[3.2.1]octane-8-carbonyl)glycine] | 0.0001 to 10 µM | 0.0001 to 10 µM
CN1CC(=O)N(Cc2nc(N3C[C@H]4CC[C@@H](C3)N4)c3cc(Cl)c(-c4c(O)cccc4F)c(F)c3n2)C1=O [P-0460, 3-((4-((1R,5S)-3,8-diazabicyclo[3.2.1]octan-3-yl)-6-chloro-8-fluoro-7-(2-fluoro-6-hydroxyphenyl)quinazolin-2-yl)methyl)-1-methylimidazolidine-2,4-dione] | 10 to 100 µM | 10 to 100 µM
O=C(CN1CCCS1(=O)=O)N1[C@@H]2CC[C@H]1CN(c1nc(OCC34CCCN3CCC4)nc3cc(-c4cc(O)cc5ccccc45)ccc13)C2 [P-0092, 2-(1,1-dioxidoisothiazolidin-2-yl)-1-((1R,5S)-3-(7-(3-hydroxynaphthalen-1-yl)-2-((tetrahydro-1H-pyrrolizin-7a(5H)-yl)methoxy)quinazolin-4-yl)-3,8-diazabicyclo[3.2.1]octan-8-yl)ethan-1-one] | 0.0001 to 10 µM | 0.0001 to 10 µM
